Assay results reported in patent publication US10421761B2, “Compounds for kinase modulation, and indications therefor” (Plexxikon Inc., priority 2013, dated 2019).
Like-named read-outs stand apart in the source and are kept apart here.

Tested on: B9 cells

CCCS(=O)(=O)Nc1ccc(F)c(C(=O)c2c[nH]c3ncc(-c4ccc(Cl)cc4)cc23)c1F [vemurafenib]
probe 1416811_s_at response, Ctla2a /// Ctla2b (cytotoxic T lymphocyte-associated protein 2 alpha /// cytotoxic T lymphocyte-associated protein 2 beta): 1.92
probe 1452352_at response, Ctla2b (cytotoxic T lymphocyte-associated protein 2 beta): 2.37
expression of gene probe 1416454_s_at (Acta2) (B9 cells, Repl. 1): 0.23
expression of gene probe 1416612_at (Cyp1b1) (B9 cells, Repl. 1): 0.19
expression of gene probe 1418240_at (Gbp2) (B9 cells, Repl. 1): 0.30
expression of gene probe 1418497_at (Fgf13) (B9 cells, Repl. 1): 0.39
expression of gene probe 1419089_at (Timp3) (B9 cells, Repl. 1): 0.26
expression of gene probe 1427183_at (Efemp1) (B9 cells, Repl. 1): 0.30
expression of gene probe 1427747_a_at (Lcn2) (B9 cells, Repl. 1): 0.36
expression of gene probe 1435906_x_at (Gbp2) (B9 cells, Repl. 1): 0.21
expression of gene probe 1438931_s_at (LOC100047324 /// Sesn1) (B9 cells, Repl. 1): 0.35
expression of gene probe 1438988_x_at (Hn1) (B9 cells, Repl. 1): 0.26
expression of gene probe 1440147_at (Lgi2) (B9 cells, Repl. 1): 0.34
expression of gene probe 1448734_at (Cp) (B9 cells, Repl. 1): 0.31
expression of gene probe 1449227_at (Ch25h) (B9 cells, Repl. 1): 0.25
expression of gene probe 1449335_at (Timp3) (B9 cells, Repl. 1): 0.24
expression of gene probe 1449340_at (Sostdc1) (B9 cells, Repl. 1): 0.17
expression of gene probe 1449815_a_at (Ssbp2) (B9 cells, Repl. 1): 0.38
expression of gene probe 1450618_a_at (Sprr2a) (B9 cells, Repl. 1): 0.36
expression of gene probe 1460250_at (Sostdc1) (B9 cells, Repl. 1): 0.23
expression of gene probe 1416454_s_at (Acta2) (B9 cells, Repl. 2): 0.20
expression of gene probe 1416612_at (Cyp1b1) (B9 cells, Repl. 2): 0.16
expression of gene probe 1418240_at (Gbp2) (B9 cells, Repl. 2): 0.28
expression of gene probe 1418497_at (Fgf13) (B9 cells, Repl. 2): 0.38
expression of gene probe 1419089_at (Timp3) (B9 cells, Repl. 2): 0.31
expression of gene probe 1427183_at (Efemp1) (B9 cells, Repl. 2): 0.37
expression of gene probe 1427747_a_at (Lcn2) (B9 cells, Repl. 2): 0.35
expression of gene probe 1435906_x_at (Gbp2) (B9 cells, Repl. 2): 0.30
expression of gene probe 1438931_s_at (LOC100047324 /// Sesn1) (B9 cells, Repl. 2): 0.33
expression of gene probe 1438988_x_at (Hn1) (B9 cells, Repl. 2): 0.27
expression of gene probe 1440147_at (Lgi2) (B9 cells, Repl. 2): 0.38
expression of gene probe 1448734_at (Cp) (B9 cells, Repl. 2): 0.30
expression of gene probe 1449227_at (Ch25h) (B9 cells, Repl. 2): 0.29
expression of gene probe 1449335_at (Timp3) (B9 cells, Repl. 2): 0.36
expression of gene probe 1449340_at (Sostdc1) (B9 cells, Repl. 2): 0.20
expression of gene probe 1449815_a_at (Ssbp2) (B9 cells, Repl. 2): 0.38
expression of gene probe 1450618_a_at (Sprr2a) (B9 cells, Repl. 2): 0.41
expression of gene probe 1460250_at (Sostdc1) (B9 cells, Repl. 2): 0.20
probe 1415828_a_at response, Serp1 (stress-associated endoplasmic reticulum protein 1) (Repl. 1, B9 cells): 2.05
probe 1415936_at response, Bcar3 (breast cancer anti-estrogen resistance 3) (Repl. 1, B9 cells): 2.21
probe 1416129_at response, Errfi1 (ERBB receptor feedback inhibitor 1) (Repl. 1, B9 cells): 3.31
probe 1416246_a_at response, Coro1a (coronin, actin binding protein 1A) (Repl. 1, B9 cells): 1.90
probe 1416325_at response, Crisp 1 (cysteine-rich secretory protein 1) (Repl. 1, B9 cells): 5.15
probe 1416401_at response, Cd82 (CD82 antigen) (Repl. 1, B9 cells): 2.87
probe 1416488_at response, Ccng2 (cyclin G2) (Repl. 1, B9 cells): 2.23
probe 1416527_at response, Rab32 (RAB32, member RAS oncogene family) (Repl. 1, B9 cells): 0.42
probe 1416811_s_at response, Ctla2a /// Ctla2b (cytotoxic T lymphocyte-associated protein 2 alpha /// cytotoxic T lymphocyte-associated protein 2 beta) (Repl. 1, B9 cells): 2.28
probe 1417065_at response, Egr1 (early growth response 1) (Repl. 1, B9 cells): 4.13
probe 1417130_s_at response, Angptl4 (angiopoietin-like 4) (Repl. 1, B9 cells): 3.10
probe 1417328_at response, Ercc1 (excision repair cross-complementing rodent repair deficiency, complementation group 1) (Repl. 1, B9 cells): 2.20
probe 1417488_at response, Fosl1 (fos-like antigen 1) (Repl. 1, B9 cells): 2.09
probe 1417494_a_at response, Cp (ceruloplasmin) (Repl. 1, B9 cells): 0.39
probe 1417495_x_at response, Cp (ceruloplasmin) (Repl. 1, B9 cells): 0.48
probe 1417533_a_at response, Itgb5 (integrin beta 5) (Repl. 1, B9 cells): 0.50
probe 1417625_s_at response, Cxcr7 (chemokine (C-X-C motif) receptor 7) (Repl. 1, B9 cells): 2.03
probe 1417677_at response, Opn3 (opsin 3) (Repl. 1, B9 cells): 2.18
probe 1417812_a_at response, Lamb3 (laminin, beta 3) (Repl. 1, B9 cells): 2.60
probe 1417837_at response, Phlda2 (pleckstrin homology-like domain, family A, member 2) (Repl. 1, B9 cells): 2.26
probe 1417902_at response, Slc19a2 (solute carrier family 19 (thiamine transporter), member 2) (Repl. 1, B9 cells): 2.00
probe 1417962_s_at response, Ghr (growth hormone receptor) (Repl. 1, B9 cells): 2.19
probe 1418349_at response, Hbegf (heparin-binding EGF-like growth factor) (Repl. 1, B9 cells): 3.29
probe 1418350_at response, Hbegf (heparin-binding EGF-like growth factor) (Repl. 1, B9 cells): 2.66
probe 1418538_at response, Kdelr3 (KDEL (Lys-Asp-Glu-Leu) endoplasmic reticulum protein retention receptor 3) (Repl. 1, B9 cells): 2.08
probe 1418539_a_at response, Ptpre (protein tyrosine phosphatase, receptor type, E) (Repl. 1, B9 cells): 1.94
probe 1419149_at response, Serpine1 (serine (or cysteine) peptidase inhibitor, clade E, member 1) (Repl. 1, B9 cells): 2.13
probe 1419188_s_at response, Ccl27a /// Gm13306 (chemokine (C-C motif) ligand 27A /// predicted gene 13306) (Repl. 1, B9 cells): 2.62
probe 1419317_x_at response, Lce3c (late cornified envelope 3C) (Repl. 1, B9 cells): 2.53
probe 1419322_at response, Fgd6 (FYVE, RhoGEF and PH domain containing 6) (Repl. 1, B9 cells): 2.60
probe 1419529_at response, Il23a (interleukin 23, alpha subunit p19) (Repl. 1, B9 cells): 2.84
probe 1419671_a_at response, Il17rc (interleukin 17 receptor C) (Repl. 1, B9 cells): 0.49
probe 1419722_at response, Klk8 (kallikrein related-peptidase 8) (Repl. 1, B9 cells): 2.02
probe 1419816_s_at response, Errfi1 (ERBB receptor feedback inhibitor 1) (Repl. 1, B9 cells): 3.87
probe 1420352_at response, Prss22 (protease, serine, 22) (Repl. 1, B9 cells): 3.07
probe 1420380_at response, Cc12 (chemokine (C-C motif) ligand 2) (Repl. 1, B9 cells): 0.37
probe 1420407_at response, Ltb4r1 (leukotriene B4 receptor 1) (Repl. 1, B9 cells): 2.29
probe 1420450_at response, Mmp10 (matrix metallopeptidase 10) (Repl. 1, B9 cells): 3.42
probe 1420537_at response, Kctd4 (potassium channel tetramerisation domain containing 4) (Repl. 1, B9 cells): 2.36
probe 1420760_s_at response, Ndrg1 (N-myc downstream regulated gene 1) (Repl. 1, B9 cells): 1.90
probe 1420913_at response, Slco2a1 (solute carrier organic anion transporter family, member 2a1) (Repl. 1, B9 cells): 1.92
probe 1420955_at response, Vsnl1 (visinin-like 1) (Repl. 1, B9 cells): 0.38
probe 1421134_at response, Areg (amphiregulin) (Repl. 1, B9 cells): 4.28
probe 1421269_at response, Ugcg (UDP-glucose ceramide glucosyltransferase) (Repl. 1, B9 cells): 2.46
probe 1421279_at response, Lamc2 (laminin, gamma 2) (Repl. 1, B9 cells): 2.23
probe 1421403_at response, Pi15 (peptidase inhibitor 15) (Repl. 1, B9 cells): 2.04
probe 1421551_s_at response, Ifi202b (interferon activated gene 202B) (Repl. 1, B9 cells): 3.58
probe 1421668_x_at response, Speer3 (spermatogenesis associated glutamate (E)-rich protein 3) (Repl. 1, B9 cells): 2.74
probe 1421679_a_at response, Cdkn1a (cyclin-dependent kinase inhibitor 1A (P21)) (Repl. 1, B9 cells): 4.27
probe 1421888_x_at response, Aplp2 (amyloid beta (A4) precursor-like protein 2) (Repl. 1, B9 cells): 0.65
probe 1421943_at response, Tgfa (transforming growth factor alpha) (Repl. 1, B9 cells): 1.93
probe 1422028_a_at response, Ets1 (E26 avian leukemia oncogene 1, 5′ domain) (Repl. 1, B9 cells): 2.13
probe 1422101_at response, Tnfrsf23 (tumor necrosis factor receptor superfamily, member 23) (Repl. 1, B9 cells): 2.04
probe 1422138_at response, Plau (plasminogen activator, urokinase) (Repl. 1, B9 cells): 2.73
probe 1422139_at response, Plau (plasminogen activator, urokinase) (Repl. 1, B9 cells): 2.45
probe 1422222_at response, Ivl (involucrin) (Repl. 1, B9 cells): 2.50
probe 1422240_s_at response, Sprr2h (small proline-rich protein 2H) (Repl. 1, B9 cells): 1.95
probe 1422273_at response, Mmp1b (matrix metallopeptidase 1b (interstitial collagenase)) (Repl. 1, B9 cells): 3.30
probe 1422324_a_at response, Pthlh (parathyroid hormone-like peptide) (Repl. 1, B9 cells): 2.11
probe 1422537_a_at response, Id2 (inhibitor of DNA binding 2) (Repl. 1, B9 cells): 0.53
probe 1422771_at response, Smad6 (MAD homolog 6 (Drosophila)) (Repl. 1, B9 cells): 0.46
probe 1422924_at response, Tnfsf9 (tumor necrosis factor (ligand) superfamily, member 9) (Repl. 1, B9 cells): 2.01
probe 1423017_a_at response, Il1rn (interleukin 1 receptor antagonist) (Repl. 1, B9 cells): 2.63
probe 1423543_at response, Swap70 (SWA-70 protein) (Repl. 1, B9 cells): 1.88
probe 1423597_at response, Atp8a1 (ATPase, aminophospholipid transporter (APLT), class I, type 8A, member 1) (Repl. 1, B9 cells): 2.02
probe 1423635_at response, Bmp2 (bone morphogenetic protein 2) (Repl. 1, B9 cells): 2.41
probe 1423690_s_at response, Gpsm1 (G-protein signalling modulator 1 (AGS3-like, C. elegans)) (Repl. 1, B9 cells): 3.37
probe 1423933_a_at response, 1600029D21Rik (RIKEN cDNA 1600029D21 gene) (Repl. 1, B9 cells): 2.06
probe 1424022_at response, Osgin1 (oxidative stress induced growth inhibitor 1) (Repl. 1, B9 cells): 2.27
probe 1424090_at response, Sdcbp2 (syndecan binding protein (syntenin) 2) (Repl. 1, B9 cells): 4.08
probe 1424306_at response, Elovl4 (elongation of very long chain fatty acids (FEN1/Elo2, SUR4/Elo3, yeast)-like 4) (Repl. 1, B9 cells): 2.51
probe 1424383_at response, Tmem51 (transmembrane protein 51) (Repl. 1, B9 cells): 2.58
probe 1424471_at response, Rapgef3 (Rap guanine nucleotide exchange factor (GEF) 3) (Repl. 1, B9 cells): 2.18
probe 1424638_at response, Cdkn1a (cyclin-dependent kinase inhibitor 1A (P21)) (Repl. 1, B9 cells): 2.76
probe 1424783_a_at response, Ugt1a1 /// Ugt1a10 /// Ugt1a2 /// Ugt1a5 /// Ugt1a6a /// Ugt1a6b /// Ugt1aTc /// Ugt1a9 (UDP glucuronosyltransferase 1 family) (Repl. 1, B9 cells): 0.39
probe 1425452_s_at response, Fam84a (family with sequence similarity 84, member A) (Repl. 1, B9 cells): 2.41
probe 1425660_at response, Btbd3 (BTB (POZ) domain containing 3) (Repl. 1, B9 cells): 2.08
probe 1426037_a_at response, Rgs16 (regulator of G-protein signaling 16) (Repl. 1, B9 cells): 3.19
probe 1426181_a_at response, I124 (interleukin 24) (Repl. 1, B9 cells): 5.52
probe 1426260_a_at response, Ugt1a1 /// Ugt1a10 /// Ugt1a2 /// Ugt1a5 /// Ugt1a6a /// Ugt1a6b /// Ugt1aTc /// Ugt1a9 (UDP glucuronosyltransferase 1 family) (Repl. 1, B9 cells): 0.39
